Assays:
[1] = test system: 1-AZT, a misfolded but functionally active mutant of α1-antitrypsin; conditions: model cell culture system; cited from earlier work
[2] = cited from earlier work
[3] = test system: new onset diabetic NOD mice; experiment: Treatment of new onset diabetic NOD mice, blood glucose monitoring (normoglycemia); assay type: in vivo, mouse
Source text: Female NOD (NOD/LtJx) mice and NOD.SCID (NOD.CB17-Prkdc^scid/J) were purchased from Jackson Laboratories (Bar Harbor, Me.) at 4 weeks of age and maintained under pathogen-free conditions in a conventional animal facility at Massachusetts General Hospital (Boston, Mass.). All animal studies were approved by our institutional review boards. The blood glucose levels of NOD mice were monitored weekly with the ACCU-CHECK® blood glucose monitor system (Roche, Indianapolis, Ind.). […] For syngeneic islet transplant recipients, blood glucose levels were checked at the time of transplantation, then daily for the first two weeks, and then 2 to 3 times per week afterward.
ARALAST™ (α1-proteinase inhibitor, human) is a major serum serine-protease inhibitor that inhibits the enzymatic activity of neutrophil elastase, cathespin G, proteinase 3, thrombin, trypsin, and chymotrypsin. ARALAST™ was purchased from Baxter (Westlake Village, Calif.) and was given at a dose of 2 mg i.p. every 3 days, for a total of 5 injections.

insulin receptor (IR) = experiment: In vivo insulin signaling in skeletal muscle, immunoblotting of IR phosphorylation; set-up: species or system mouse; conditions: skeletal muscle of new onset diabetic NOD mice, FIG. 1
Experimental: (§1) FIG. 1 is a pair of bar graphs representing the results obtained from studies of insulin signaling in skeletal muscle. The upper graph charts insulin receptor (IR) phosphorylation and the lower graph charts insulin receptor substrate-1 (IRS-1) phosphorylation in control, diabetic, and treated animals.
(§2) In vivo insulin signaling experiments were performed on mice after a 16 hour fast. Mice were injected i.p. with 20 U/kg BW of human insulin (Eli Lilly) or saline. Skeletal muscle (gastronemius) was dissected and frozen in liquid nitrogen for immunoblotting analysis of insulin signaling proteins.
(§3) Skeletal muscle (gastronemius), obtained in the context of our in vivo insulin signaling studies, was homogenized in a modified radioimmunoprecipitation assay (RIPA) buffer containing 50 mM Tris-HCl, 1 mM EDTA, 1% NP-40, 0.25% sodium deoxycholate, 150 mM NaCl, 1 mM PMSF, 200 μM […], supplemented with 1% protease inhibitor cocktail (Sigma), and 1% tyrosine phosphatase inhibitor cocktail (Sigma). Cell homogenates were incubated on ice for 45 minutes to solubilize all proteins, and insoluble portions were removed by centrifugation at 14,000 g at 4° C. for 15 minutes. Whole cell lysates were separated by SDS-polyacrylamide gel electrophoresis (PAGE). […] The blots were quantified using densitometry (Molecular Dynamics, Sunnvale, Calif.).

[4] = test system: insulin receptor substrate-1 (IRS-1); experiment: In vivo insulin signaling in skeletal muscle, immunoblotting of IRS-1 phosphorylation; set-up: species or system mouse; conditions: skeletal muscle of new onset diabetic NOD mice, FIG. 1
Experimental: as §1, §2, §3

[5] = subcutaneous injection of 25 mg twice a week; average; cited from earlier work

O=C(O)CCCc1ccccc1 [PBA, 4-phenylbutyric acid]
Secretion of 1-AZT [1]: marked increase

AAT: α1-antitrypsin, plasma serine protease inhibitor (serpin)
Half life in plasma [2]: approximately six
Effect of a short course on glycemia [3]: restores normoglycemia

Aralast ™: α1-proteinase inhibitor, human; major serum serine-protease inhibitor, purchased from Baxter
Days after treatment (how long the animals have been normoglycemic) ([3]; animals still alive at writing): 90 to 300 days
Tyrosyl-phosphorylation of insulin receptor (IR) (insulin receptor (IR)): restored
Phosphorylation of insulin receptor substrate-1 (IRS-1) [4]: restored

Etanercept
Time to peak blood levels [5]: 72 h
